Target: T1, NLRP3 inflammasome (Homo sapiens, UniProt Q96P20)
T1 construct: endogenous in cells; host or cells: THP-1 (human monocyte-derived), PMA-differentiated, Nigericin-stimulated
Assay: In vitro IL-1β production test (PMA-differentiated THP-1 cells, Nigericin stimulation, AlphaLISA)
Assay type: cell-based
Conditions: inhibition of IL-1β production; THP-1 cells differentiated with 200 nM PMA; 0.015 mM Nigericin; 2 hours
Experimental: Human monocyte-derived THP-1 cells were cultured for one day in 10% bovine serum-containing RPMI-1640 medium (Thermo #A10491-01) supplemented with 200 nM phorbol 12-myristate 13-acetate (PMA, Sigma #P8139) to induce differentiation.
NLRP3 inflammasome was induced by replacing the culture medium with bovine serum-free RPMI-1640 medium supplemented with 0.015 mM Nigericin (Sigma #SML1779) and the test compound of known concentrations.
After 2 hours, the culture medium supernatant was collected and the IL-1β protein concentration was measured using the AlphaLISA (registered trademark) assay (PerkinElmer #AL220C).
The IL-1β concentration without the addition of the test compound and with Nigericin stimulation was set as 0% inhibitory activity, and the IL-1β concentration without Nigericin stimulation was set as 100% inhibitory activity, and the inhibition rate (% inhibition) of the test compound at each added concentration was calculated.
The % inhibition value was subjected to sigmoid fitting using a logistic regression model to calculate the 50% inhibitory concentration (IC50 value).

T1 sequence (Q96P20 whole entry): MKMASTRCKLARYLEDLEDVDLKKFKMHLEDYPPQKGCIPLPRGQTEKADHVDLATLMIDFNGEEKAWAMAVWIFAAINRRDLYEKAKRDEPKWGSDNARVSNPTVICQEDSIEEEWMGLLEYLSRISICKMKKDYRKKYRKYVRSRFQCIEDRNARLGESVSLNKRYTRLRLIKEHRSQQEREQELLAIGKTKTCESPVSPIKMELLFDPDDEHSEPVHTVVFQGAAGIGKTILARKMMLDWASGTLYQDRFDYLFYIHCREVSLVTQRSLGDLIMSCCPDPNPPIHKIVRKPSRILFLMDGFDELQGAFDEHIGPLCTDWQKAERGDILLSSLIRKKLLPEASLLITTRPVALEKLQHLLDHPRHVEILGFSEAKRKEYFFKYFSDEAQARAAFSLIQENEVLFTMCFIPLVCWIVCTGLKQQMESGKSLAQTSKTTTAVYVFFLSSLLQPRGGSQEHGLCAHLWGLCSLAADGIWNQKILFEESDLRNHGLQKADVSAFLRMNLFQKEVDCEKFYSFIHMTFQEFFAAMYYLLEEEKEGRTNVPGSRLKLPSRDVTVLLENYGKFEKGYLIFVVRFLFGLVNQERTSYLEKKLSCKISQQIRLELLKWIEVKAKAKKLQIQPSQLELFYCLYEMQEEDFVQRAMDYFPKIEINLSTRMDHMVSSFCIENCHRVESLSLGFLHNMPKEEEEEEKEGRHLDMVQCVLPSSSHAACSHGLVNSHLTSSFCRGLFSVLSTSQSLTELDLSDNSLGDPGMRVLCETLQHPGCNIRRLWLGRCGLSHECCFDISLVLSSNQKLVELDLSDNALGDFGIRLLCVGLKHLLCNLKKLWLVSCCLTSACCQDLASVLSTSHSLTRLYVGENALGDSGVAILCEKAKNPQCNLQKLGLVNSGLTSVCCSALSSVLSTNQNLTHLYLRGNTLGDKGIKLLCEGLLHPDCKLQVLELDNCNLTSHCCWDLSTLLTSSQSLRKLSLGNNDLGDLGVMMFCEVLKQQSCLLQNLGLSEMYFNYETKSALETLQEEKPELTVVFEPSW

Structure (SMILES)	IC50 [nM]
Cc1cc(C(F)(F)F)cc(O)c1-c1cc2c(nn1)N([C@@H]1CCCN(C)C1)C[C@H]2C (single isomer, unassigned) [Example 33, 3-methyl-2-{(5S or 5R)-5-methyl-7-[(3R)-1-methylpiperidin-3-yl]-6,7-dihydro-5H-pyrrolo[2,3-c]pyridazin-3-yl}-5-(trifluoromethyl)phenol]	10
Cc1cc(C(F)(F)F)cc(O)c1-c1cc2c(nn1)N([C@@H]1CCCN(CC(C)(C)O)C1)CC2 [Example 58, 2-{7-[(3R)-1-(2-hydroxy-2-methylpropyl)piperidin-3-yl]-6,7-dihydro-5H-pyrrolo[2,3-c]pyridazin-3-yl}-3-methyl-5-(trifluoromethyl)phenol]	55.8
Cc1cc(C(F)(F)F)cc(O)c1-c1cc2c3c(n([C@H]4C[C@@](C)(O)C4)c2nn1)CCC3 [Example 12, 2-{8-[(1s,3s)-3-hydroxy-3-methylcyclobutyl]-5,6,7,8-tetrahydrocyclopenta[4,5]pyrrolo[2,3-c]pyridazin-3-yl}-3-methyl-5-(trifluoromethyl)phenol]	25.9
Cc1cc(C(F)(F)F)cc(O)c1-c1cc2c(nn1)N([C@@H]1CCCN(C)C1)CCN2C [Example 35, 3-methyl-2-{5-methyl-8-[(3R)-1-methylpiperidin-3-yl]-5,6,7,8-tetrahydropyrazino[2,3-c]pyridazin-3-yl}-5-(trifluoromethyl)phenol]	25.6
Cc1cc(Cl)cc(O)c1-c1cc2c(OC(F)F)cn([C@H]3C[C@@](C)(O)C3)c2nn1 [Example 29, 5-chloro-2-{5-(difluoromethoxy)-7-[(1s,3s)-3-hydroxy-3-methylcyclobutyl]-7H-pyrrolo[2,3-c]pyridazin-3-yl}-3-methylphenol]	12.4
Cc1cc(C(F)F)cc(O)c1-c1cc2c(C)cn([C@H]3C[C@@](C)(O)C3)c2nn1 [Example 92, 5-(difluoromethyl)-2-{7-[(1s,3s)-3-hydroxy-3-methylcyclobutyl]-5-methyl-7H-pyrrolo[2,3-c]pyridazin-3-yl}-3-methylphenol]	59.2
Cc1cc(C(F)(F)F)cc(O)c1-c1cc2c(nn1)N(c1ncc(F)cn1)[C@@H]1CCO[C@H]21 (single isomer, unassigned) [Example 98, 2-[(4bR,7aR or 4bS,7aS)-8-(5-fluoropyrimidin-2-yl)-6,7,7a,8-tetrahydro-4bH-furo[2′,3′:4,5]pyrrolo[2,3-c]pyridazin-3-yl]-3-methyl-5-(trifluoromethyl)phenol]	13.8
Cc1cc(C(F)(F)F)cc(O)c1-c1ccc(CC2CCCN(C)C2)nn1 (racemic) [Example 93, 3-methyl-2-{6-[(1-methylpiperidin-3-yl)methyl]pyridazin-3-yl}-5-(trifluoromethyl)phenol]	30.1
COc1cn([C@H]2C[C@@](C)(O)C2)c2nnc(-c3c(C)cc(Cl)cc3O)cc12 [Example 28, 5-chloro-2-{7-[(1s,3s)-3-hydroxy-3-methylcyclobutyl]-5-methoxy-7H-pyrrolo[2,3-c]pyridazin-3-yl}-3-methylphenol]	12
Cc1cc(C(F)(F)F)cc(O)c1-c1cc2c(nn1)N([C@@H]1CCCN(C)C1)C(C)C2 (mixture of isomers) [Example 30, 3-methyl-2-{6-methyl-7-[(3R)-1-methylpiperidin-3-yl]-6,7-dihydro-5H-pyrrolo[2,3-c]pyridazin-3-yl}-5-(trifluoromethyl)phenol]	14.4
Cc1c(F)c(C(F)(F)F)cc(O)c1-c1cc2c(C)cn([C@H]3C[C@@](C)(O)C3)c2nn1 [Example 50, 4-fluoro-2-{7-[(1s,3s)-3-hydroxy-3-methylcyclobutyl]-5-methyl-7H-pyrrolo[2,3-c]pyridazin-3-yl}-3-methyl-5-(trifluoromethyl)phenol]	236
Cc1cc(C(F)(F)F)cc(O)c1-c1cc2c(nn1)N([C@@H]1C[C@@H](F)CN(C)C1)CC2 [Example 60, 2-{7-[(3R,5R)-5-fluoro-1-methylpiperidin-3-yl]-6,7-dihydro-5H-pyrrolo[2,3-c]pyridazin-3-yl}-3-methyl-5-(trifluoromethyl)phenol]	74.8
Cc1cc(C(F)(F)F)cc(O)c1-c1cc2c3c(n([C@H]4C[C@@](C)(O)C4)c2nn1)COC3 [Example 99, 2-{8-[(1s,3s)-3-hydroxy-3-methylcyclobutyl]-7,8-dihydro-5H-furo[3′,4′:4,5]pyrrolo[2,3-c]pyridazin-3-yl}-3-methyl-5-(trifluoromethyl)phenol]	9.53
CCN1[C@H]2CC[C@@H]1[C@H](n1cc(C)c3cc(-c4c(C)cc(C(F)(F)F)cc4O)nnc31)CC2 (single isomer, unassigned) [Example 76, 2-{7-[(1R,2R,5S or 1S,2S,5R)-8-ethyl-8-azabicyclo[3.2.1]octan-2-yl]-5-methyl-7H-pyrrolo[2,3-c]pyridazin-3-yl}-3-methyl-5-(trifluoromethyl)phenol]	10.1
CCN1C[C@H](F)C[C@@H](N2CCc3cc(-c4c(C)cc(C(F)(F)F)cc4O)nnc32)C1 [Example 66, 2-{7-[(3R,5R)-1-ethyl-5-fluoropiperidin-3-yl]-6,7-dihydro-5H-pyrrolo[2,3-c]pyridazin-3-yl}-3-methyl-5-(trifluoromethyl)phenol]	16.4
Cc1cc(C(F)(F)F)cc(O)c1-c1cc2c(C)cn([C@@H]3CCCN(C)C3)c2nn1 [Example 56, 3-methyl-2-{5-methyl-7-[(3R)-1-methylpiperidin-3-yl]-7H-pyrrolo[2,3-c]pyridazin-3-yl}-5-(trifluoromethyl)phenol]	14.4
Cc1cc(C(F)(F)F)cc(O)c1-c1cc2c(C)cn(C34COCC(O)(C3)C4)c2nn1 [Example 65, 5-{3-[2-hydroxy-6-methyl-4-(trifluoromethyl)phenyl]-5-methyl-7H-pyrrolo[2,3-c]pyridazin-7-yl}-3-oxabicyclo[3.1.1]heptan-1-ol]	47
Cc1cc(C(F)(F)F)cc(O)c1-c1cc2ccn([C@H]3C[C@@](C)(O)[C@H]3C)c2nn1 (racemic) [Example 42, 2-{7-[(1S*,2S*,3R*)-3-hydroxy-2,3-dimethylcyclobutyl]-7H-pyrrolo[2,3-c]pyridazin-3-yl}-3-methyl-5-(trifluoromethyl)phenol]	74
CCc1cn([C@H]2C[C@@](C)(O)C2)c2nnc(-c3c(C)cc(C(F)(F)F)cc3O)cc12 [Example 44, 2-{5-ethyl-7-[(1s,3s)-3-hydroxy-3-methylcyclobutyl]-7H-pyrrolo[2,3-c]pyridazin-3-yl}-3-methyl-5-(trifluoromethyl)phenol]	75
Cc1cn([C@H]2C[C@@](C)(O)C2)c2nnc(-c3c(O)cc(C(F)(F)F)cc3C#N)cc12 [Example 53, 3-hydroxy-2-{7-[(1s,3s)-3-hydroxy-3-methylcyclobutyl]-5-methyl-7H-pyrrolo[2,3-c]pyridazin-3-yl}-5-(trifluoromethyl)benzonitrile]	275
Cc1cc(C(F)(F)F)cc(O)c1-c1cc2c(C)c(C)n([C@H]3C[C@@](C)(O)C3)c2nn1 [Example 51, 2-{7-[(1s,3s)-3-hydroxy-3-methylcyclobutyl]-5,6-dimethyl-7H-pyrrolo[2,3-c]pyridazin-3-yl}-3-methyl-5-(trifluoromethyl)phenol]	33.6
Cc1cc(C(F)(F)F)cc(O)c1-c1cc2scc(C3CCCN(C)C3)c2nn1 (racemic) [Example 95, 3-methyl-2-[7-(1-methylpiperidin-3-yl)thieno[3,2-c]pyridazin-3-yl]-5-(trifluoromethyl)phenol]	19.7
Cc1cc(C(F)(F)F)cc(O)c1-c1cc2c(nn1)N([C@@H]1CCCN(C3CC3)C1)CC2 [Example 18, 2-{7-[(3R)-1-cyclopropylpiperidin-3-yl]-6,7-dihydro-5H-pyrrolo[2,3-c]pyridazin-3-yl}-3-methyl-5-(trifluoromethyl)phenol]	6.65
Cc1cc(C(F)(F)F)cc(O)c1-c1cc2c(nn1)N([C@@H]1CCCN(C)C1)CCCN2C [Example 37, 3-methyl-2-{5-methyl-9-[(3R)-1-methylpiperidin-3-yl]-6,7,8,9-tetrahydro-5H-pyridazino[3,4-b][1,4]diazepin-3-yl}-5-(trifluoromethyl)phenol]	25.8
Cc1cc(C(F)(F)F)cc(O)c1-c1cc2c(Cl)cn([C@H]3C[C@@](C)(O)C3)c2nn1 [Example 6, 2-{5-chloro-7-[(1s,3s)-3-hydroxy-3-methylcyclobutyl]-7H-pyrrolo[2,3-c]pyridazin-3-yl}-3-methyl-5-(trifluoromethyl)phenol]	26
Cc1cc(C#N)cc(O)c1-c1cc2c(C)cn([C@H]3C[C@@](C)(O)C3)c2nn1 [Example 52, 3-hydroxy-4-{7-[(1s,3s)-3-hydroxy-3-methylcyclobutyl]-5-methyl-7H-pyrrolo[2,3-c]pyridazin-3-yl}-5-methylbenzonitrile]	39.1
CCc1cc(C)c(-c2cc3c(C)cn([C@H]4C[C@@](C)(O)C4)c3nn2)c(O)c1 [Example 62, 5-ethyl-2-{7-[(1s,3s)-3-hydroxy-3-methylcyclobutyl]-5-methyl-7H-pyrrolo[2,3-c]pyridazin-3-yl}-3-methylphenol]	70.8
Cc1cc(C(F)(F)F)cc(O)c1-c1cc2c(nn1)N([C@@H]1CCCN(C)C1)[C@H](C)C2 (single isomer, unassigned) [Example 55, 3-methyl-2-{(6R or 6S)-6-methyl-7-[(3R)-1-methylpiperidin-3-yl]-6,7-dihydro-5H-pyrrolo[2,3-c]pyridazin-3-yl}-5-(trifluoromethyl)phenol]	23.8
